pEC50: −log10 of the molar value.
Tests used:
S1P4 = biological target: T1, S1P4 (Homo sapiens, UniProt O95977); assay: Specificity over other S1P receptors: S1P4-bla TANGO U2OS; type: cell-based; details: without Forskolin, read-out: S1P4 agonist value (EC50)
T1 construct: fused on or other part: Tango handle at the receptor's C-terminus: a TEV protease cleavage site and the Gal4-VP16 transcription factor, possibly a V2 vasopressin receptor tail; The cells also carry a beta-arrestin/TEV protease fusion and a UAS-beta-lactamase reporter
T1 sequence (O95977 1-384): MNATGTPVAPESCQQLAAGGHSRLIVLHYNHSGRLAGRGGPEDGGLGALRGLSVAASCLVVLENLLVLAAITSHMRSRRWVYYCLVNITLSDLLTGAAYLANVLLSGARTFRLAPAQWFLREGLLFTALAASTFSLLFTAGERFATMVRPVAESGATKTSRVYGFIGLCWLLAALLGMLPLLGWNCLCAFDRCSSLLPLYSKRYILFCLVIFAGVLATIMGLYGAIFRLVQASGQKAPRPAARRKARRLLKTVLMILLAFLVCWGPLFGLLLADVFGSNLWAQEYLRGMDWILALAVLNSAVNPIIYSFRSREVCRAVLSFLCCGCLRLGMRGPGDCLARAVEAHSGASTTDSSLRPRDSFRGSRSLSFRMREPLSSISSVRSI
Protocol: (§1) Cells were seeded into 384-well black wall/clear bottom plates at 10^4 cells/well/19.5 μl assay media (DMEM-phenol free, 0.5% charcoal/dextran stripped serum, 2 mM glutamine, 0.1 mM NEAA, 1 mM Na-Pyruvate, 25 mM Hepes) and incubated for 18 hrs at 37° C. in 5% CO2. Dose response curves (10-point) were generated in 10 mM Hepes, 0.1% Pluronic F127, in the presence of Forskolin. Cells were treated with 0.5 μl compound in the presence of 2 μM Forskolin for 4 hrs at 37° C. The FRET-based β-lactamase fluorescent substrate (LiveBLAzer™-FRET B/G Loading Kit CC4-AM; Invitrogen) was prepared according to manufacturer's directions, and incubated with cells for 2 hrs at room temperature. Plates were read at Ex:410/Em:458 and Ex:410/Em:522, and the response ratio determined. Data was analyzed by non-linear regression to determine the EC50 for inhibition of Forskolin induced cAMP.
(§2) To assess compound specificity on other S1P receptors the following cell lines were used: S1P2 CRE-bla CHOK1, S1P3-Gα15 NFAT-bla HEK293T (Invitrogen), S1P4-bla TANGO U2OS (Invitrogen), S1P5-bla TANGO U2OS (Invitrogen). The same assay set up for S1P1 was used but without Forskolin. S1P4 and S1P5 assays were performed in FreeStyle Expression medium (Invitrogen). S1P5 cells were incubated for 48 hrs in prior to treatment with compound.

[1] = Therapeutic index, 5 or 14 day toxicology studies in rats (lung to body weight); type: in vivo, Sprague-Dawley rats
Protocol: All studies were conducted in non-fasted male and female Sprague-Dawely rats (Simonsen Laboratories). Rats were housed in an AAALAC accredited facility and the research was approved by the facilities Institutional Animal Care and Use Committee (IACUC). The animals were acclimated to the laboratory for at least 5 days prior to initiation of experiments.
The compounds listed in Table 6 were formulated as suspensions in a vehicle consisting of 0.5% carboxymethyl cellulose (Acros Organics) in purified water (pH adjusted to ˜2.2 with hydrochloric acid). The same formulation was used in the rat lymphopenia and toxicology studies described below. The concentration of each compound in suspension was verified to be within ±10% of the target concentration by HPLC-UV.
Prior to the conduct of toxicology studies, the effect of three to five daily doses of each compound on peripheral T-cell counts of female rats was determined (see lymphopenia measurements in rats above). In these lymphopenia studies, blood samples were collected onto EDTA at intervals after the final study dose. The collection times were not identical for each study; however, all studies included a sample collected 24 hours after the final dose. The lymphopenia data was used as a biomarker to select equally pharmacologically active doses for the subsequent toxicology study. […]

S1P2 = biological target: T2, S1P2 (Homo sapiens, UniProt O95136); assay: Specificity over other S1P receptors: S1P2 CRE-bla CHOK1; type: cell-based; details: S1P2 CRE-bla CHOK1, without Forskolin; read-out: S1P2 agonist value (EC50)
T2 construct: expressed in transfected cells; host or cells: CRE-bla CHOK1
Protocol: as §1, §2

S1P5 = biological target: T3, S1P5 (Homo sapiens, UniProt Q9H228); assay: Specificity over other S1P receptors: S1P5-bla TANGO U2OS; type: cell-based; details: without Forskolin, read-out: S1P5 agonist value (EC50)
T3 construct: fused on or other part: Tango handle at the receptor's C-terminus: a TEV protease cleavage site and the Gal4-VP16 transcription factor, possibly a V2 vasopressin receptor tail; The cells also carry a beta-arrestin/TEV protease fusion and a UAS-beta-lactamase reporter
Protocol: as §1, §2

S1P1/EDG1 = S1P1/EDG1 (Homo sapiens, UniProt P21453); assay: S1P1 CRE-bla CHOK1 reporter assay, inhibition of Forskolin induced cAMP; type: cell-based; details: CRE-bla CHOK1 cells, with Forskolin; read-out: S1P1 agonist value (EC50)
Protocol: Generation of S1P1-Mediated Inhibition of cAMP Reporter Assay
S1P1/pcDNA3.1 was transfected into the CRE-bla CHO K1 (Invitrogen) cell line, and stable single cell clones were selected using standard techniques.
S1P1 CRE-Bla CHOK1 Reporter Assay—Characterization of S1P1 Agonists
as §1, with “Plates were read at Ex:410/Em:458 and Ex:410/Em:522, and the response ratio determined.” left out

peripheral T-cell counts = assay: Lymphopenia in rats, multiple dose; type: in vivo; details: 24 hours after final dose of a 3-5 day multiple dose regimen
Protocol: In rats: Female rats (Simonsen Laboratories, Gilroy Calif.) were housed in an ALAAC accredited facility and the research was approved by the facilities Institutional Animal Care and Use Committee (IACUC). The animals were acclimated to the laboratory for at least 5 days prior to initiation of experiments. Rats (n=3/compound/time-point) were dosed by oral gavage with 1 mg/kg compound formulated in a vehicle consisting of 5% DMSO/5% Tween 20 and 90% 0.1N HCL. Control rats were dosed PO with the vehicle. Whole blood was collected from isoflurane anesthetized rats via the retro-orbital sinus and terminal samples were collected by cardiac puncture into EDTA. Whole blood was incubated with mouse anti-rat CD32 (BD #550271), PE-mouse anti-rat CD45R/B220 (BD #554881), PECy5-mouse anti-rat CD4 (BD #554839), and APC-mouse anti-rat CD8a (eBioscience #17-0084) for 30 minutes on ice. Red blood cells were lysed using BD Pharm Lyse Lysing buffer (#555899) and white blood cells were analyzed with a BD FACSArray. Lymphopenia was expressed as the % of white blood cells that were CD4 or CD8 positive T cells. […]
Prior to the conduct of toxicology studies, the effect of three to five daily doses of each compound on peripheral T-cell counts of female rats was determined (see lymphopenia measurements in rats above). […]

T2 sequence (O95136 whole entry, species assumed): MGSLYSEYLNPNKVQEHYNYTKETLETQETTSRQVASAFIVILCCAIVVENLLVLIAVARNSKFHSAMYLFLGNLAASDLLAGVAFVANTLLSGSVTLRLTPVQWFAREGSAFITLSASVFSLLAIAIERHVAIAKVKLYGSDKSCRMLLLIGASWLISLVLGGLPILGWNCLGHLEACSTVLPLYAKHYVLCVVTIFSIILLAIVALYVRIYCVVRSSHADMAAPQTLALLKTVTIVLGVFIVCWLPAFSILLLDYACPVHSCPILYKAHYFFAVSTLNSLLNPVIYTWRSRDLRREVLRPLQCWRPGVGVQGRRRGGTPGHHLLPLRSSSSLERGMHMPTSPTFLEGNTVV
T3 sequence (Q9H228 whole entry, the tested form may be a part): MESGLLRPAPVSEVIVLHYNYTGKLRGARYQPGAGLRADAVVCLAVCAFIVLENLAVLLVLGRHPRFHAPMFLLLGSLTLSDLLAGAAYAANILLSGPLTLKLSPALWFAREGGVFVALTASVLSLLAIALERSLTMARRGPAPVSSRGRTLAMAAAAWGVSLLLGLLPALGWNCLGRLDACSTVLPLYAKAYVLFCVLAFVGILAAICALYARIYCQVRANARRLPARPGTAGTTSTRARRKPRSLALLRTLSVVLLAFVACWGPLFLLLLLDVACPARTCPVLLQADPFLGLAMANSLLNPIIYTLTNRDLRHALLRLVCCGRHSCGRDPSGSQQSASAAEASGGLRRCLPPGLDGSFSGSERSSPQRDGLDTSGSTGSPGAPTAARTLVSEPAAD
Chain of S1P1/EDG1 (P21453 whole entry): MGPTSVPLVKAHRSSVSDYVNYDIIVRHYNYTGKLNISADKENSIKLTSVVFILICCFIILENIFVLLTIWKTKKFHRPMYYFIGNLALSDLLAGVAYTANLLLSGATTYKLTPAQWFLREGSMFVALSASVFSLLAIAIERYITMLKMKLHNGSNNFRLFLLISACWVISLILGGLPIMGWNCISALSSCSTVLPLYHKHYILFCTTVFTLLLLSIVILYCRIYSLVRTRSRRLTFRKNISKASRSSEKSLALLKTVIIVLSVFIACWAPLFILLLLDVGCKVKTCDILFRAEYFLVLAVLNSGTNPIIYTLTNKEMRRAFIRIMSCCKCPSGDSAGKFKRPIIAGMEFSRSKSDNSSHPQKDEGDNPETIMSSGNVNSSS

For CC(C)Oc1ccc(-c2nc(-c3cccc4c3CCC4NS(=O)(=O)CCO)no2)cc1C#N (stereo in doubt) [Compound 186, (R)—N-(4-(5-(3-cyano-4-isopropoxyphenyl)-1,2,4-oxadiazol-3-yl)-2,3-dihydro-1H-inden-1-yl)-2-hydroxyethanesulfonamide], the pEC50 (S1P4) was 5.92, the “TI 5 days” value ([1]; 5 day toxicology study, dose for 10% lung weight increase / dose for 50% T-cell depletion) was 16 and the “Dose Resulting in 10% increase in lung weight” value ([1]; oral, 5 or 14 consecutive days, interpolated from dose versus lung to body weight) was 1.1 mg/kg. The pEC50 (S1P2) was 5.80, the pEC50 (S1P5) was 7.49 and the pEC50 (S1P1/EDG1) was 10.30. The “Dose Producing 50% lymphopenia” value (peripheral T-cell counts) was 0.07 mg/kg.

Reference: patent publication US20170165236A1, “SELECTIVE SPHINGOSINE 1 PHOSPHATE RECEPTOR MODULATORS AND COMBINATION THERAPY THEREWITH” (Celgene International II Sàrl, priority 2013, published 2017)
